The record followed here is patent US12459940B2, “Oxazole compound as multi-targeted inhibitor of IRAK4 and BTK” (SHANGHAI FOSUN PHARMACEUTICAL INDUSTRIAL DEVELOPMENT CO., …, priority 2019, dated 2025).

The target of one experiment is T1, human IRAK4 (Homo sapiens, UniProt Q9NWZ3).
T1 construct: purchased Reaction Biology Corp
T1 sequence (Q9NWZ3 1-460): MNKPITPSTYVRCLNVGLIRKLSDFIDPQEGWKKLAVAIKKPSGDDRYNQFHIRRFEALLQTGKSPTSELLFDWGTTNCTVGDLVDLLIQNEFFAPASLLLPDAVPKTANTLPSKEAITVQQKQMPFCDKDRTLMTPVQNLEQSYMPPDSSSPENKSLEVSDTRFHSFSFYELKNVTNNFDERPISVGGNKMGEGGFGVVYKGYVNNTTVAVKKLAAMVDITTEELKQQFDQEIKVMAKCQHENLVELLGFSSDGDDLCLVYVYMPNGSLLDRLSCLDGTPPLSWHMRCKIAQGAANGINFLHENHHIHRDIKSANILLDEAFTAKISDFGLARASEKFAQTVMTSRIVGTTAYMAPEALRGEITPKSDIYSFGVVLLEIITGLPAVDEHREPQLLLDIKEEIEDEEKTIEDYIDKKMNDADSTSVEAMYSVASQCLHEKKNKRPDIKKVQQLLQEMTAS
In words: In vitro IRAK4 kinase activity, 33P isotope-labeled kinase activity assay (Reaction Biology Corp). The experiment is classed as biochemical.
Conditions: not given
The procedure:
The IC50 values were determined using ^33P isotope-labeled kinase activity assay (Reaction Biology Corp) to evaluate the inhibitory ability of the tested compounds on human IRAK4.
(§1) Buffer conditions: 20 mM Hepes (pH 7.5), 10 mM MgCl2, 1 mM EGTA, 0.02% Brij35, 0.02 mg/mL BSA, 0.1 mM Na3VO4, 2 mM DTT, 1% DMSO.
Test procedure: At room temperature, the tested compound was dissolved in DMSO to prepare a 10 mM solution for later use. The substrate was dissolved in a newly prepared buffer solution, and the tested IRAK4 kinase was added thereto and mixed evenly. The DMSO solution dissolved with the tested compound was added to the above reaction mixture mixed evenly using acoustic technique (Echo 550). After incubation for 15 minutes, ^33P-ATP was added to initiate the reaction.
In turn, `Cc1cc(-c2nc(C(=O)Nc3cn4cc(CCC(C)(C)O)nc4cc3N3CCC(CN)CC3)co2)ccn1` [WX014] yielded an IC50 of 0.9 nM.

The molecule `CC(C)c1cc(-c2nc(C(=O)Nc3cn4cc(CCC(C)(C)O)nc4cc3N3CCCCC3)co2)ccn1` [WX011] had an IC50 of 1.5 nM.

For the molecule `COC(=O)N1CCN(c2cc3nc(CCC(C)(C)O)cn3cc2NC(=O)c2coc(-c3ccnc(C)c3)n2)CC1` [WX004], the IC50 worked out at 1.3 nM.

In turn, `Cc1cc(-c2nc(C(=O)Nc3cn4cc(CCC(C)(C)O)nc4cc3C3CCCCC3)co2)ccn1` [WX022] came in with an IC50 of 0.7 nM.

Turning to `Cc1cc(-c2nc(C(=O)Nc3cn4cc(CCC(C)(C)O)nc4cc3N3CCC(O)CC3)co2)ccn1` [WX006], the IC50 was found to be 1.2 nM.

On to `Cc1cc(-c2nc(C(=O)Nc3cn4cc(CCC(C)(C)O)nc4cc3N3CCNCC3)co2)ccn1` [WX003], for which the IC50 was 2.2 nM.

Turning to `Cc1cc(-c2nc(C(=O)Nc3cn4cc(CCC(C)(C)O)nc4cc3N3CCC(F)(F)CC3)co2)ccn1` [WX009], the IC50 worked out at 0.7 nM.

Regarding `Cc1cc(-c2nc(C(=O)Nc3cn4cc(CCC(=O)O)nc4cc3N3CCCCC3)co2)ccn1` [WX018], the IC50 was 0.9 nM.

`CC(C)(O)CCc1cn2cc(NC(=O)c3coc(-c4ccnc(C#N)c4)n3)c(N3CCCCC3)cc2n1` [WX015] displayed an IC50 of 0.4 nM.

In turn, `Cc1cc(-c2nc(C(=O)Nc3cn4cc(CCC(C)(C)O)nc4cc3N3CCOCC3)co2)ccn1` [WX002] returned an IC50 of 1.2 nM.

In turn, `Cc1cc(-c2nc(C(=O)Nc3cn4cc(CCC(=O)O)nc4cc3N3CCC(CO)CC3)co2)ccn1` [WX020] displayed an IC50 of 0.5 nM.

The same experiment, now with this note: 33P-ATP, 120 minutes at room temperature; read-out: IRAK4/IC50.
For the molecule `CC(C)(O)CCc1cn2cc(NC(=O)c3coc(-c4ccnc(C5CC5)c4)n3)c(N3CCCCC3)cc2n1` [WX012], the IC50 turned out to be 1 nM.

Turning to `Cc1cc(-c2nc(C(=O)Nc3cn4cc(CCC(=O)O)nc4cc3-c3ccccc3)co2)ccn1` [WX039], the IC50 is 1 nM.

With `CC(=O)N1CCN(c2cc3nc(CCC(C)(C)O)cn3cc2NC(=O)c2coc(-c3ccnc(C)c3)n2)CC1` [WX005], the IC50 was 1.1 nM.

Take `Cc1cc(-c2nc(C(=O)Nc3cn4cc(CCC(=O)O)nc4cc3-c3cccnc3)co2)ccn1` [WX023]: the IC50 was determined as 8.4 nM.

The target in another experiment is T2, human BTK (Homo sapiens, UniProt Q06187).
T2 construct: purchased Reaction Biology Corp
T2 sequence (Q06187 whole entry): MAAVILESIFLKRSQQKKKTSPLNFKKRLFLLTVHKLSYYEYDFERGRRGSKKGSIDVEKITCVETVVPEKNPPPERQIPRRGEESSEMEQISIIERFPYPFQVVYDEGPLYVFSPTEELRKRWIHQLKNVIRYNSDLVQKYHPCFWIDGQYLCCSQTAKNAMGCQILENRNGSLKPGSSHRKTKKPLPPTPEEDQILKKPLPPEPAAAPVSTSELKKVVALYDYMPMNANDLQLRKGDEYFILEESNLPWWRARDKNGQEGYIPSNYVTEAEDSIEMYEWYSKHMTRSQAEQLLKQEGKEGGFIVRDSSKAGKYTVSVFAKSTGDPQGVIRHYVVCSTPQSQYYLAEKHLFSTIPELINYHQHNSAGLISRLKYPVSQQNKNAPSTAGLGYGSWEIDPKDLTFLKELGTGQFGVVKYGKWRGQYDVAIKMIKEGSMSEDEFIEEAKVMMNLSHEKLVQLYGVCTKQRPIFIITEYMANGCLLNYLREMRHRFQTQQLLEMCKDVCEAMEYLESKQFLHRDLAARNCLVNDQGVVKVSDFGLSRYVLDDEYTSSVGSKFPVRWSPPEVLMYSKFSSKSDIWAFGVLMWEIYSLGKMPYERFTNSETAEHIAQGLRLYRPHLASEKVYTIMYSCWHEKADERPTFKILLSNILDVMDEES
In words: In vitro BTK kinase activity, 33P isotope-labeled kinase activity assay (Reaction Biology Corp). As to conditions: 33P-ATP, 2 hours at room temperature. The experiment is classed as biochemical. The procedure:
The IC50 values were determined using ^33P isotope-labeled kinase activity assay (Reaction Biology Corp) to evaluate the inhibitory ability of the tested compounds on human BTK.
as §1
Test procedure: At room temperature, the tested compound was dissolved in DMSO to prepare a 10 mM solution for later use. The substrate was dissolved in a newly prepared buffer solution, and the tested BTK kinase was added thereto and mixed evenly. The compound dissolved in DMSO was added to the kinase reaction mixture through Echo 550 (Acoustic technology; Nanoliter range). After incubation for 20 minutes at room temperature, ^33P-ATP was added to initiate the reaction. The reaction was carried out at room temperature for 2 hours, and the radioactivity of the reaction liquid point was detected by filtration-binding method with P81 ion exchange filter paper. The kinase activity data were expressed by comparing the kinase activity of the group containing the tested compound with the kinase activity of the blank group (only containing DMSO), and the IC50 value was obtained by curve fitting by Prism4 software (GraphPad), the experimental results are shown in Table 10.
The molecule `CC(C)(O)CCc1cn2cc(NC(=O)c3coc(-c4ccnc(C5CC5)c4)n3)c(N3CCCCC3)cc2n1` [WX012] showed an IC50 of 6.9 nM.

In turn, `Cc1cc(-c2nc(C(=O)Nc3cn4cc(CCC(C)(C)O)nc4cc3N3CCC(CN)CC3)co2)ccn1` [WX014] returned an IC50 of 25.7 nM.

`CC(C)c1cc(-c2nc(C(=O)Nc3cn4cc(CCC(C)(C)O)nc4cc3N3CCCCC3)co2)ccn1` [WX011]: the IC50 was 23.6 nM.

Molecule `Cc1cc(-c2nc(C(=O)Nc3cn4cc(CCC(=O)O)nc4cc3-c3ccccc3)co2)ccn1` [WX039] returned an IC50 of 29 nM.

`Cc1cc(-c2nc(C(=O)Nc3cn4cc(CCC(C)(C)O)nc4cc3C3CCCCC3)co2)ccn1` [WX022] displayed an IC50 of 43.1 nM.

The molecule `Cc1cc(-c2nc(C(=O)Nc3cn4cc(CCC(C)(C)O)nc4cc3N3CCC(O)CC3)co2)ccn1` [WX006] gave an IC50 of 47.5 nM.

`Cc1cc(-c2nc(C(=O)Nc3cn4cc(CCC(C)(C)O)nc4cc3N3CCC(F)(F)CC3)co2)ccn1` [WX009] returned an IC50 of 46 nM.

For `Cc1cc(-c2nc(C(=O)Nc3cn4cc(CCC(=O)O)nc4cc3N3CCCCC3)co2)ccn1` [WX018], the IC50 was determined as 47.5 nM.

With `CC(C)(O)CCc1cn2cc(NC(=O)c3coc(-c4ccnc(C#N)c4)n3)c(N3CCCCC3)cc2n1` [WX015], the IC50 is 6.4 nM.

With `Cc1cc(-c2nc(C(=O)Nc3cn4cc(CCC(=O)O)nc4cc3N3CCC(CO)CC3)co2)ccn1` [WX020], the IC50 was found to be 8.5 nM.

For a further experiment, the system named is TNF-α production in THP-1 cells. In words: THP-1 cytological TNFa ELISA assay (LPS-stimulated). Format: cell-based. As to conditions: Homo sapiens, TNF-α in culture supernatant, 150 ng/mL LPS, 18 hours. The procedure: THP-1 human acute […] leukemia cells were purchased from ATCC (Cat #TIB-202) and cultured at 37° C. in 5% CO2 incubator. The composition of medium was RPMI1640 (Gibco, Cat #22400-105), and the supplementary compositions were 10% FBS (Gibco, Cat #10091148); 1% PenStrep (Gibco, Cat #15140); 0.05 mM 2-Mercaptoethanol (Sigma, Cat #M6250).
TNF-α Elisa kit was used to detect the content of TNF-α in cell culture supernatant samples. TNF-α was produced by stimulating THP-1 cells with 150 ng/mL LPS (Sigma, Cat #L6529).
THP-1 cells cultured normally at logarithmic growth stage were seeded in a 96-well plate (Corning #3599) at a certain concentration (1*10^5/100 μL) and then put into a cell incubator for incubation. After two hours, 16.7 μL of different concentrations of the compound to be tested (8*final concentration) were added and incubated in an incubator. After one hour, 16.7 μL of 1200 ng/mL LPS was added and incubated in an incubator. After 18 hours, the culture supernatant samples were collected by centrifugation, and the content of TNF-α could be detected by TNF-α Elisa kit. Finally, OD signals (OD450-OD570) were read on envision board reader.
The OD450-OD570 signal value was converted into a percentage inhibition rate. Inhibition rate %=(ZPE−sample)/(ZPE−HPE)*100.
“HPE” refers to the OD450-OD570 signal value of the control well without LPS stimulated cells, and “ZPE” refers to the OD450-OD570 signal value of the control well with LPS stimulated cells. The IC50 value of the compound was calculated by XLFit in the excel add-in. Y=Bottom+(Top−Bottom)/(1+(IC50/X)^HillSlope). Equation: […]
`CC(C)c1cc(-c2nc(C(=O)Nc3cn4cc(CCC(C)(C)O)nc4cc3N3CCCCC3)co2)ccn1` [WX011] registered an IC50 of 140 nM.

In turn, `COC(=O)N1CCN(c2cc3nc(CCC(C)(C)O)cn3cc2NC(=O)c2coc(-c3ccnc(C)c3)n2)CC1` [WX004] showed an IC50 of 77 nM.

Molecule `CC(=O)N1CCN(c2cc3nc(CCC(C)(C)O)cn3cc2NC(=O)c2coc(-c3ccnc(C)c3)n2)CC1` [WX005] showed an IC50 of 256 nM.

On to `Cc1cc(-c2nc(C(=O)Nc3cn4cc(CCC(C)(C)O)nc4cc3N3CCC(O)CC3)co2)ccn1` [WX006], for which the IC50 is 107 nM.

`Cc1cc(-c2nc(C(=O)Nc3cn4cc(CCC(C)(C)O)nc4cc3N3CCNCC3)co2)ccn1` [WX003] had an IC50 of 557 nM.

In the case of `Cc1cc(-c2nc(C(=O)Nc3cn4cc(CCC(=O)O)nc4cc3N3CCCCC3)co2)ccn1` [WX018], the IC50 was 104 nM.
